# Laboratory results from PMC12920379 (European Journal of Nuclear Medicine and Molecular Imaging, 2025).
# Tests used:
# PC3 tumors = assay: In vivo combination therapy with everolimus in PC3-mice
# Description: (b) Everolimus monotherapy: Mice received everolimus (5 mg/kg/day) on days 0, 2, and 4 of the therapy.
# [1] = Morphological assessment / tolerability of treated PC3-mice; type: in vivo
# Description: Selected mouse organs (kidney, pancreas and tumor) were dissected from the sacrificed animals and immediately frozen using liquid nitrogen. Frozen tissue samples were sectioned at 7 μm thickness using a cryostat maintained at −20 °C to −25 °C and mounted onto microscope glass slides, followed by staining with hematoxylin and eosin for microscopic examination using standard protocols (supplementary material).
# Frozen tissue samples (kidney, pancreas and tumor) were sectioned at 7 µm thickness using a cryostat maintained at −20°C to −25°C and mounted onto microscope glass slides. Sections were air-dried at room temperature for 15 minutes and subsequently fixed in 4% paraformaldehyde for 10 minutes. After rinsing in phosphate-buffered saline, slides were stained with hematoxylin for 5 minutes, rinsed in running tap water and differentiated in 1% acid alcohol followed by bluing in ammonia water. Sections were then counterstained with eosin for 1 minute and briefly washed in 70% ethanol to remove excess stain. Slides were dehydrated through graded ethanol (70%, 95%, 100%) and mounted with a permanent mounting medium. Stained sections were examined using a light microscope.
smiles,measurement,setting,value
CO[C@H]1C[C@@H]2CC[C@@H](C)[C@@](O)(O2)C(=O)C(=O)N2CCCC[C@H]2C(=O)O[C@H]([C@H](C)C[C@@H]2CC[C@@H](OCCO)[C@H](OC)C2)CC(=O)[C@H](C)/C=C(\C)[C@@H](O)[C@@H](OC)C(=O)[C@H](C)C[C@H](C)/C=C/C=C/C=C/1C [everolimus],Time tumor volume kept under 500 mm^3,"PC3 tumors; everolimus alone 5 mg/kg/day on days 0, 2, 4",20 days
same,Median survival,"PC3 tumors; everolimus alone 5 mg/kg/day on days 0, 2, 4, p > 0.5",~ 25 days
same,"Microscopic tissue examination, kidney",[1]; 5mg/kg (x3),Vacuolar degeneration of some tubular epithelial cells. No other obvious lesions
same,"Microscopic tissue examination, pancreas",[1]; 5mg/kg (x3),No obvious lesions.
same,"Tolerability (physical condition, weight fluctuations)","[1]; PC3-mice, three doses of everolimus",no observable side effects
